These results are taken from PMC7764284, “Determination of the Synthetic Cannabinoids JWH-122, JWH-210, UR-144 in Oral Fluid of Consumers by GC-MS and Quantification of Parent Compounds and Metabolites by UHPLC-MS/MS” (International Journal of Molecular Sciences, 2020).

Some results are limits rather than exact numbers.

Details of series [1]: method as in PMID 21871150. To be noted: oral fluid; after smoking two types of herbal products; cited from earlier work.
The nature of series [2]: Oral fluid concentration-time course of SCs and metabolites in consumers after smoking self-administration (GC-MS and UHPLC-HRMS). To be noted: for second peak concentration in OF: after the decrease at 3 h.
Where [3] appears, read: consumer smoked JWH-210 3 mg, UHPLC-HRMS.
Setting [4] is: female, human, po, 3 mg, peak concentration (Cmax) in OF, consumer smoked JWH-210 3 mg, by UHPLC-HRMS, at 20 min.
Where [5] appears, read: female, human, po, 3 mg, second peak concentration (Cmax) in OF, consumer smoked JWH-210 3 mg, UHPLC-HRMS, after 2 h.

By Tmax is commonly meant the time at which the peak concentration occurs. In general, Cmax refers to the maximum level reached in the sampled fluid or tissue.

Regarding `CCCCCn1cc(C(=O)c2cccc3ccccc23)c2ccccc21` [JWH-018], in series [1], the “time of peak OF concentration” value is given as 20 min.
On to `Cc1ccc(C(=O)c2cn(CCCC(C)O)c3ccccc23)c2ccccc12` (centres unmarked) [JWH-122 N-(4-OH), (1-(4-hydroxypentyl)-1H-indol-3-yl)(4-methylnaphthalen-1-yl)methanone], for which the “concentration range in OF” value in series [2] (consumer smoked JWH-122 1 mg, UHPLC-HRMS, between 10 min and 3 h after smoking) lay within 0.29 to 0.36 ng/mL. Moreover, the concentration at 20 min in series [2] (female, human, po, 1 mg) was 0.29 ng/mL.
Regarding `Cc1ccc(C(=O)c2cn(CCCCCO)c3ccccc23)c2ccccc12` [JWH-122 N-(5-OH), (1-(5-hydroxypentyl)-1H-indol-3-yl)(4-methylnaphthalen-1-yl)-methanone], the “detection of metabolite in OF” value in series [2] (consumer smoked JWH-122 1 mg, UHPLC-HRMS) was “only detected in traces under the LOQ”.
Consider `CCCCCn1cc(C(=O)c2ccc(C)c3ccccc23)c2ccccc21` [JWH-122, (4-methyl-1-naphthalenyl)(1-pentyl-1H-indol-3-yl)-methanone], for which the “second peak concentration in OF” value in series [2] (consumer smoked JWH-122 1 mg, by GC-MS) came out at 2.00 ng/mL; in series [2] (consumer smoked JWH-122 1 mg, by UHPLC-HRMS), 1.60 ng/mL. The Tmax in series [2] (female, human, po, 1 mg) is 20 min. The maximum concentration (Cmax) in series [2] (female, human, po, 1 mg, peak concentration (Cmax) in OF, consumer smoked JWH-122 1 mg, by GC-MS, at 20 min) is 4 ng/mL; in series [2] (female, human, po, 1 mg, peak concentration (Cmax) in OF, consumer smoked JWH-122 1 mg, by UHPLC-HRMS, at 20 min) it was 3.14 ng/mL.
On to `CCc1ccc(C(=O)c2cn(CCCC(C)O)c3ccccc23)c2ccccc12` (centres unmarked) [JWH-210 N-(4-OH), (4-ethylnaphthalen-1-yl)(1-(4-hydroxypentyl)-1H-indol-3-yl)methanone], for which the “time of second peak concentration” value in series [2] (setting [3]) turned out to be 2 h. Moreover, the Tmax in series [2] (female, human, po, 3 mg) was 20 min. For the same compound, the highest concentration (Cmax) in series [2] (setting [4]) came to 0.29 ng/mL; in series [2] (setting [5]), 0.98 ng/mL.
The matching figures for `CCc1ccc(C(=O)c2cn(CCCCCO)c3ccccc23)c2ccccc12` [JWH-210 N-(5-OH), (4-ethylnaphthalen-1-yl)(1-(5-hydroxypentyl)-1H-indol-3-yl)methanone]: 2 h, 20 min, 0.66 ng/mL and 0.61 ng/mL.
For the compound `CCCCCn1cc(C(=O)c2ccc(CC)c3ccccc23)c2ccccc21` [JWH-210, (4-ethyl-1-naphthalenyl)(1-pentyl-1H-indol-3-yl)-methanone], the “time after which undetectable in OF” value in series [2] (consumer smoked JWH-210 3 mg) is given as 3 h. Besides, in series [2] (female, human, po, 3 mg), the time of peak concentration (Tmax) is 20 min. The Cmax in series [2] (female, human, po, 3 mg, peak concentration (Cmax) in OF, consumer smoked JWH-210 3 mg, by GC-MS, at 20 min) worked out at 8.1 ng/mL; in series [2] (setting [4]) it was 7.3 ng/mL.
Turning to `CC1(C)C(C(=O)c2cn(CCCCCO)c3ccccc23)C1(C)C` [UR-144 N-(5-OH), [1-(5-hydroxypentyl)-1H-indol-3-yl](2,2,3,3-tetramethylcyclopropyl)-methanone], the “detection of metabolite in OF” value in series [2] (consumer smoked UR-144 1 mg, UHPLC-HRMS, all the time-course) is “only detected in traces”.
Regarding `CCCCCn1cc(C(=O)C2C(C)(C)C2(C)C)c2ccccc21` [UR-144, (1-pentyl-1H-indol-3-yl)(2,2,3,3-tetramethylcyclopropyl)-methanone], in series [2] (consumer smoked UR-144 1 mg), the “time peak from smoking start” value was found to be 20 min and the “time to decrease to undetectable values in OF” value is recorded as at most 4 h. Besides, the highest concentration (Cmax) in series [2] (male, human, po, 1 mg, Cmax in OF, consumer smoked UR-144 1 mg, by GC-MS, at 20 min) turned out to be 7.4 ng/mL. In addition, in series [2] (male, human, po, 1 mg, Cmax in OF, consumer smoked UR-144 1 mg, by UHPLC-HRMS, at 20 min), the peak concentration (Cmax) was determined as 6.81 ng/mL.
